The values that follow come from paper PMC2760454 (Biochemistry, 2008).

Each structure is given as a SMILES string. Read-outs that look alike come from different tables or passages of the source.

Experiment [1] addresses T1, homoisocitrate dehydrogenase (HIcDH) (Saccharomyces cerevisiae, UniProt P40495). The experiment can be described thus: Product and dead-end inhibition studies of HIcDH in the absence of K+. The class given is biochemical. To be noted: NAD fixed at its Km.
Experiment [2] concerns the target T1, homoisocitrate dehydrogenase (HIcDH). The experiment in a line: HIcDH initial velocity studies. The class given is biochemical. Conditions: for Kact (activation constant): varied salt, MgHIc 4.2 µM, NAD 0.5 mM, fit to eq. 1.
The target is the same in experiment [3]. The experiment in a line: pH dependence of HIcDH kinetic parameters and of the activation constant of K+. The class given is biochemical.
For experiment [4] the target is unchanged. To be noted: in the presence of K+; cited from earlier work.

T1 sequence (P40495 23-371): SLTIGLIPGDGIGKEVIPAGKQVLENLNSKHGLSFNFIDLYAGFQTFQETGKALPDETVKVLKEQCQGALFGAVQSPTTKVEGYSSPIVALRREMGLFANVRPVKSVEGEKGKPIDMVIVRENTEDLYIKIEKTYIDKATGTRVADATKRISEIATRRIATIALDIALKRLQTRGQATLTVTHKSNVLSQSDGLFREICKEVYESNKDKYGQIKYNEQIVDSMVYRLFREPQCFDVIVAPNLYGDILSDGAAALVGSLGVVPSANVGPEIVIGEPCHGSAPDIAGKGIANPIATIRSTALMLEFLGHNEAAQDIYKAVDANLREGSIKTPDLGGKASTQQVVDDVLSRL

On to `O=C(O)CCC=C(C(=O)O)C(O)C(=O)O` (stereo not drawn) [CPM, 3-Carboxypropylidenemalate], for which the “inhibition constant, competitive versus MgHIc” value in experiment [1] was 65 ± 7 ∝M.

On to `[Cl-].[K+]` [KCl], for which the “fold increase in initial rate” value in experiment [2] (200 mM KCl versus absence, reactants fixed at their Km values) stood at 13 fold. In addition, the “Kact (activation constant)” value in experiment [2] is given as 55 ± 20 mM.

Consider `CC(=O)[O-].[K+]` [KOAc, Potassium acetate], for which the “Ki fold higher than with KCl” value in experiment [2] (KOAc versus KCl) was 5 fold. Also, the “Kact (activation constant)” value in experiment [2] came to 26 ± 4 mM.

Turning to `[K+]` [K^+, Potassium], the Kd in experiment [2] (read-out: KiK, NAD varied at fixed KOAc, MgHIc saturating (10Km), fit to eq. 5) is 43 ± 19 mM. In addition, the “appKact, pH independent value” in experiment [3] (KOAc varied, NAD 0.4 mM, MgHIc 10Km, average of data above pH 7) is given as “about 13 mM”.

With `NC(=O)c1ccc[n+]([C@@H]2O[C@H](COP(=O)([O-])OP(=O)(O)OC[C@H]3O[C@@H](n4cnc5c(N)ncnc54)[C@H](O)[C@@H]3O)[C@@H](O)[C@H]2O)c1` [NAD, nicotinamide adenine dinucleotide], in experiment [2], the Kd was 77 ± 57 mM. Moreover, the KNAD is given as 9 ± 3 mM in experiment [2] (KCl 0 mM); 1.6 ± 0.2 mM in experiment [2] (KCl 5 mM); 1.3 ± 0.1 mM in experiment [2] (KCl 15 mM); 0.8 ± 0.1 mM in experiment [2] (KCl 150 mM); 0.9 ± 0.2 mM in experiment [2] (KCl 350 mM); 9 ± 3 mM in experiment [2] (Minus KOAc, pH 8.0, 25°C). The KNAD was found to be 0.3 ± 0.1 mM in experiment [2] (NAD varied at fixed KOAc, MgHIc saturating (10Km), fit to eq. 5) and 0.3 ± 0.1 mM in experiment [2] (Plus KOAc, pH 8.0, 25°C). In addition, the V1/KNADEt entry was “(5 ± 1) × 10^2 M^−1·s^−1” in experiment [2] (Minus KOAc, pH 8.0, 25°C) and “(4 ± 1) × 10^4 M^−1·s^−1” in experiment [2] (Plus KOAc, pH 8.0, 25°C). Also, the “V/KNADEt, constant value at high pH” value in experiment [3] (absence of K+, pH 8.5 to 9.7) is “about 123 ± 3 M^−1s^−1”.

In general, Ki refers to the equilibrium dissociation constant of an inhibitor or competing ligand from its target. For `NC(=O)C1=CN([C@@H]2O[C@H](COP(=O)(O)OP(=O)(O)OC[C@H]3O[C@@H](n4cnc5c(N)ncnc54)[C@H](O)[C@@H]3O)[C@@H](O)[C@H]2O)C=CC1` [NADH, reduced nicotinamide adenine dinucleotide], in experiment [4], the Ki was 0.3 mM.

Regarding `C[N+](C)(C)C.[Cl-]` [tetramethylammonium chloride, reference compound], the “initial rate as % of that without KCl” value in experiment [2] (200 mM, fixed concentrations of MgHIc and NAD) is given as “about 36%”.
